According to article PMC6422312 (Molecular pharmacology, 2010):
Entries after “also recorded” stand apart in the source; their conditions may differ.

Columns and labels:
[1] = target: T1, P-gp Q773A mutant (Homo sapiens, UniProt P08183, Q773A); experiment: cell-based
[2] = target: T2, P-gp Q132R mutant (Homo sapiens, UniProt P08183, Q132R); experiment: cell-based
[3] = target: P-gp Q132A/Q773A mutant (Homo sapiens, UniProt P08183, Q132A/Q773A); experiment: cell-based
[4] = target: T3, P-gp Q132A mutant (Homo sapiens, UniProt P08183, Q132A); experiment: cell-based
[5] = target: T2, P-gp Q132R mutant; details: rhodamine123 efflux inhibition
[6] = target: wild-type P-gp (Homo sapiens, UniProt P08183); experiment: cell-based
[7] = target: T3, P-gp Q132A mutant; details: alanine mutants (Q132A, Q773A) vs wild type, rhodamine123 efflux inhibition
[8] = target: T4, P-gp Q773R mutant (Homo sapiens, UniProt P08183, Q773R); experiment: cell-based; details: IC50 for rhodamine123 efflux inhibition, HEK-293/EBNA cells
[9] = target: P-gp Q132R/Q773R double mutant (Homo sapiens, UniProt P08183, Q132R/Q773R); experiment: Rhodamine123 efflux; assay type: cell-based; details: protein expressed at the cell surface
[10] = target: T2, P-gp Q132R mutant; experiment: Rhodamine123 efflux; assay type: cell-based; details: slope of first-order rate constant vs P-gp surface expression (MRK16)
[11] = target: T4, P-gp Q773R mutant; experiment: Rhodamine123 efflux; assay type: cell-based; details: slope of first-order rate constant vs P-gp surface expression (MRK16)
[12] = target: T1, P-gp Q773A mutant; experiment: Rhodamine123 efflux; assay type: cell-based; details: Q773A vs wild type
[13] = target: T3, P-gp Q132A mutant; experiment: Rhodamine123 efflux; assay type: cell-based; details: Q132A vs wild type

T3 sequence (P08183 whole entry Q132A): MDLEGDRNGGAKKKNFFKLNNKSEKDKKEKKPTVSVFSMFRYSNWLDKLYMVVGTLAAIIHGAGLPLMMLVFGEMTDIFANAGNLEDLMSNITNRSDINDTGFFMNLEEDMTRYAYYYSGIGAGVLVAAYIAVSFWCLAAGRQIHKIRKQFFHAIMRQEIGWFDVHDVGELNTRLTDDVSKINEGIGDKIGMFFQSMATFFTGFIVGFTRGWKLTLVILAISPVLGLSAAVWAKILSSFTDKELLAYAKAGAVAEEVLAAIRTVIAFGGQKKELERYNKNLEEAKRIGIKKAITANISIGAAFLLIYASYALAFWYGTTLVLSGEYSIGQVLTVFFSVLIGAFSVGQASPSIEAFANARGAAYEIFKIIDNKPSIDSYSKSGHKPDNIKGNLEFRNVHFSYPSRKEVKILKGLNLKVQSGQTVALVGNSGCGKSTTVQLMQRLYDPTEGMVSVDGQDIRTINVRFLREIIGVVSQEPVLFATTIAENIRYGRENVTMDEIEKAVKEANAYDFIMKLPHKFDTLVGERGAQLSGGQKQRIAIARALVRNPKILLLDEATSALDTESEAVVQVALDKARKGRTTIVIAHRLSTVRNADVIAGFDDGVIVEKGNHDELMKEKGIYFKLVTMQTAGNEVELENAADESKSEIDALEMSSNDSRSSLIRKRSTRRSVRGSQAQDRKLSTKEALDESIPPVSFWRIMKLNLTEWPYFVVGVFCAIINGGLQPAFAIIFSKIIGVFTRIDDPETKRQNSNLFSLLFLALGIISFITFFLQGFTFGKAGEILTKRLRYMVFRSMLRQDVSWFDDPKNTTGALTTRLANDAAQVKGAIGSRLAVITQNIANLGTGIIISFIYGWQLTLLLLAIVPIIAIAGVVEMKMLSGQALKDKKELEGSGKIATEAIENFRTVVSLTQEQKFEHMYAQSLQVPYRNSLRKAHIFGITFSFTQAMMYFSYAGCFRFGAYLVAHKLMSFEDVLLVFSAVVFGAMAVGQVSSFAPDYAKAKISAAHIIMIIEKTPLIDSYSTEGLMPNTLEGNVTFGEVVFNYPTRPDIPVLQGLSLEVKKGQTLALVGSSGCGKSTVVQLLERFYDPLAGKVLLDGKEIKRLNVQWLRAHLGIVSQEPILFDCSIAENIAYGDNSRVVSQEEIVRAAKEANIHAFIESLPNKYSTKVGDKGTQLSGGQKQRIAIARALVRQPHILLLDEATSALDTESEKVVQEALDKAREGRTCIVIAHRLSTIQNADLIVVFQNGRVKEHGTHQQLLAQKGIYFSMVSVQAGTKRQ
T2 sequence (P08183 whole entry Q132R): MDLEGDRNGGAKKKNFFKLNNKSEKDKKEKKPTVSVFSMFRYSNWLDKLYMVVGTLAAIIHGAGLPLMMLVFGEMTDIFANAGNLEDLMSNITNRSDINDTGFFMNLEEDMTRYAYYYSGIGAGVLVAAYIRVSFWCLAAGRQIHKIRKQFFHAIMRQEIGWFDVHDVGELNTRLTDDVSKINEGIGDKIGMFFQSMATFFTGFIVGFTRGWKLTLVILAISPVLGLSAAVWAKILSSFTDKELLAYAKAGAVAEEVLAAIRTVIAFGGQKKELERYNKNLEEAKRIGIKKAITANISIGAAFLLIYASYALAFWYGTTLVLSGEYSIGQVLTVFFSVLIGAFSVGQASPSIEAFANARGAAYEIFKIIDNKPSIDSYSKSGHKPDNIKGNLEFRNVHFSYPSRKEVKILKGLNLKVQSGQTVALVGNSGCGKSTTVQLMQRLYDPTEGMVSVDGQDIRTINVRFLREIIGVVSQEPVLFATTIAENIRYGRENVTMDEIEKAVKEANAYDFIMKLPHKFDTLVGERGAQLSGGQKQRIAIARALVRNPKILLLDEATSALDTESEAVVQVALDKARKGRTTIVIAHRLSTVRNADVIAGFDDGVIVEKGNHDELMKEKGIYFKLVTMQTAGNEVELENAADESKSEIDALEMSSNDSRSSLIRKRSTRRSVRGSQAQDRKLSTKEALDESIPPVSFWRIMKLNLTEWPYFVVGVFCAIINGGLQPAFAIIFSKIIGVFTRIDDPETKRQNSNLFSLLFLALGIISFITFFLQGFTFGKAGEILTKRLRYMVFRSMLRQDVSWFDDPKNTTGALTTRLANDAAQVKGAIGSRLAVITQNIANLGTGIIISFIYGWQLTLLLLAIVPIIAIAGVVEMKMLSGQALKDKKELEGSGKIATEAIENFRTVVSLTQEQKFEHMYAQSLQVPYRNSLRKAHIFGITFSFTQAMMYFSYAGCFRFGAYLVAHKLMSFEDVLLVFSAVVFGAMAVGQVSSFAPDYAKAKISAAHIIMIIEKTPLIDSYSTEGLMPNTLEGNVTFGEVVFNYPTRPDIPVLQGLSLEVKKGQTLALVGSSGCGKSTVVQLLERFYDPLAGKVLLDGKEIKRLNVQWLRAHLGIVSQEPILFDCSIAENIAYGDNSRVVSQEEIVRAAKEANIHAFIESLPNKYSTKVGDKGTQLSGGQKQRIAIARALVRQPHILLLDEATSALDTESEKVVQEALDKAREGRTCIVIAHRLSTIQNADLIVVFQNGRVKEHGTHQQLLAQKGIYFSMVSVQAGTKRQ
T4 sequence (P08183 whole entry Q773R): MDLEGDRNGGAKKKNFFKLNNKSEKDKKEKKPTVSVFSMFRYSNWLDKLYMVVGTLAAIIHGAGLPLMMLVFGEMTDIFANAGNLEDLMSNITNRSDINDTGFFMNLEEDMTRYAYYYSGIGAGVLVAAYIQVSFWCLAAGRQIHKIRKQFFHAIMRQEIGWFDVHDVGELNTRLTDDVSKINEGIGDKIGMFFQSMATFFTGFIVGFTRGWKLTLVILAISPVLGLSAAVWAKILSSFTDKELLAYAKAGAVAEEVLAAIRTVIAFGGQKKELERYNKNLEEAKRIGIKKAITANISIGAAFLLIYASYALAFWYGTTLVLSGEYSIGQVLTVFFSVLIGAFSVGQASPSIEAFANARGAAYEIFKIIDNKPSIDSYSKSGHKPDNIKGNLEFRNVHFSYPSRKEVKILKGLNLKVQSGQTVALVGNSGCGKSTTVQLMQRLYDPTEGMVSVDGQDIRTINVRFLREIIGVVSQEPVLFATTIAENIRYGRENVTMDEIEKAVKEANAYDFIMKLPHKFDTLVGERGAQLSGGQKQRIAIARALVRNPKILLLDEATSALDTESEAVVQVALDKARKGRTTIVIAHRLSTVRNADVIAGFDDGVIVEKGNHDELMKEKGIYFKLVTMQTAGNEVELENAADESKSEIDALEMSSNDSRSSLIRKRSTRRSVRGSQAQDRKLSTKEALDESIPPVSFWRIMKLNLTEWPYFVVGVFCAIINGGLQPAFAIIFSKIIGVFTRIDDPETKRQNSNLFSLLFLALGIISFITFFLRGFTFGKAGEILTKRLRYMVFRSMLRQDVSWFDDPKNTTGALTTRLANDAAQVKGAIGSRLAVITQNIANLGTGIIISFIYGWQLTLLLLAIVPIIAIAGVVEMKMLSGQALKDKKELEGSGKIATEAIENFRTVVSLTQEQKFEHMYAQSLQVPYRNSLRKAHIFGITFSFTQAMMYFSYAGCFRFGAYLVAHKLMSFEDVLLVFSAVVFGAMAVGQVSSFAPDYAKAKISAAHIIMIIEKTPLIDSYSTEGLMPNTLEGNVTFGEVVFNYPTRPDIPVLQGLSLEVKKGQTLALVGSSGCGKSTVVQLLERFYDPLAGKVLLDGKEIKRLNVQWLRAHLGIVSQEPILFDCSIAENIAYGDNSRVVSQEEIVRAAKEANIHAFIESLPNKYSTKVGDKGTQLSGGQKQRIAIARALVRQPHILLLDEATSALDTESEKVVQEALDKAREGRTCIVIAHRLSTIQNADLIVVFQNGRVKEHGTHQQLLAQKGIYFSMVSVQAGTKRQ
T1 sequence (P08183 whole entry Q773A): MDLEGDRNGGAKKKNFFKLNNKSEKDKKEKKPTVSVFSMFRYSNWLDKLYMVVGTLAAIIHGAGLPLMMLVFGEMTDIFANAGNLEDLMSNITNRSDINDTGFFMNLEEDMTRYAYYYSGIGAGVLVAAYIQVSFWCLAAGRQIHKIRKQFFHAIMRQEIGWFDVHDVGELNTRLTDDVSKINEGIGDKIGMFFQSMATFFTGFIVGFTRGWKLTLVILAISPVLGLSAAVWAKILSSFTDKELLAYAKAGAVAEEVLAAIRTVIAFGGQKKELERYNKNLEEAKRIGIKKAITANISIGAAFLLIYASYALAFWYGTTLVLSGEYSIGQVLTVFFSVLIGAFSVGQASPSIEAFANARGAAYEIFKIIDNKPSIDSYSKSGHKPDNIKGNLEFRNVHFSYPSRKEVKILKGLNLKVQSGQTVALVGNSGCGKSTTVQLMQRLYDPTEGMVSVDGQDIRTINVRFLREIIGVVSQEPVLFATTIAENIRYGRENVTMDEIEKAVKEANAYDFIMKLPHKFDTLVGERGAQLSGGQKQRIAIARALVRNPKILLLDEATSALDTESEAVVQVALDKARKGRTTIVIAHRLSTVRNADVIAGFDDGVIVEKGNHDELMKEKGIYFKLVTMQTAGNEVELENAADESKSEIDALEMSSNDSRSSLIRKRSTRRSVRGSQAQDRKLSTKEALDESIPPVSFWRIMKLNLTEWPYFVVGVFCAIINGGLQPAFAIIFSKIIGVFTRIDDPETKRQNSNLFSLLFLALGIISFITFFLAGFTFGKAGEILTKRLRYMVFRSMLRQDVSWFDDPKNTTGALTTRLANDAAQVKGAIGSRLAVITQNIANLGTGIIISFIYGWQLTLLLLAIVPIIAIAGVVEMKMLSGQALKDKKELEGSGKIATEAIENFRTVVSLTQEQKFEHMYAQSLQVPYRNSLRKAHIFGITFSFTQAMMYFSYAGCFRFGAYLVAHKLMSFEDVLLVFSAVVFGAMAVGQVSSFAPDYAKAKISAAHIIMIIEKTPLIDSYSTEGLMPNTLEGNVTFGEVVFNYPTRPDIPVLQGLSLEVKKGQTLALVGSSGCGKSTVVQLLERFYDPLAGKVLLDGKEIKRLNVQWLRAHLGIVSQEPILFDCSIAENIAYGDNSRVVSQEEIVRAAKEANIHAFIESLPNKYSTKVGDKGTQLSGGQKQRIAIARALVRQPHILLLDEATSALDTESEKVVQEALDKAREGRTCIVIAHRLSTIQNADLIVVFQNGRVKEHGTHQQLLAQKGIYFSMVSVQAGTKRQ

SMILES	IC50 [1] [µM]	IC50 [2] [µM]	IC50 [3] [µM]	IC50 [4] [µM]	Fold difference in IC50 values between the two Arg mutants ([5]; Q132R vs Q773R) [fold]	Fold higher IC50 in Q132R than in wild-type P-gp ([5]; Q132R vs wild-type) [fold]	IC50 [6] [µM]	Change of IC50 values on mutation of glutamine residues to alanine [7]	IC50 [8] [µM]	Rhodamine123 transport activity [9]	Rhodamine123 transport rate relative to wild-type [10]	Rhodamine123 transport rate relative to wild-type [11]	Effect of mutation on rhodamine123 transport [12]	Effect of mutation on rhodamine123 transport [13]
O=C(CCc1ccccc1)c1ccccc1OCC(O)CN1CCN(c2ccc(F)cc2)CC1 (stereo not drawn) [GPV31, 1-(2-(3-(4-(4-fluorophenyl)piperazin-1-yl)-2-hydroxypropoxy)phenyl)-3-phenylpropan-1-one]	0.11 ± 0.05	0.71 ± 0.46	0.12 ± 0.01	0.1 ± 0.03	36	~7	0.11 ± 0.06	did not change	0.02 ± 0.01					
CCCN(CC(O)COc1ccccc1C(=O)CCc1ccccc1)C(=O)c1ccccc1 (stereo not drawn) [GPV366, N-(2-hydroxy-3-(2-(3-phenylpropanoyl)phenoxy)-propyl)-N-propylbenzamide]	2.4 ± 1.47	2.64 ± 0.59	2.87 ± 0.63	2.57 ± 0.69			2.6 ± 0.69	did not change	2.09 ± 0.9					
COC(=O)c1ccccc1-c1c2ccc(=N)cc-2oc2cc(N)ccc12 [rhodamine123]										complete loss of transport activity	52 ± 13 % of wild-type	24 ± 6 % of wild-type	did not affect; also recorded: comparable with wild-type	did not affect; also recorded: comparable with wild-type
